Results published in patent US20100248372A1, “Composition and Method for Modulating Plant Transformation” (priority 2009, published 2010).
Read-outs that look alike come from different tables or passages of the source.

How the values were obtained:
[1] = test system: Nicotiana tabacum; test: Stable T-DNA integration (LUC expression test of regenerated plantlets); assay type: in vivo; conditions: for Calli regenerated and transplanted, LUC expression test: LUC negative / Calli regenerated and transplanted, LUC expression test: LUC positive: 20 leaves transformed
Description: The number of transgenic plants, having incorporated a marker gene, regenerated from tobacco calli in various transformation experiments were counted. All the regenerated plants were screened using a luciferase camera. Spraying the transgenic plants with luciferine, the substrate for luciferase enzyme, allowed the identification of transgenic plants expressing the luciferase.
The newly appeared plantlets regenerated from the calli of Example 4 showing evidence of root formation, were excised from the calli and transferred to soil.
Plantlets were sprayed with luciferine, and the total number of luciferase-positive plantlets was scored. This allowed the calculation of the transformation frequency, as the number of plants expressing LUC gene to the number of transformed leaves, shown in FIG. 7.

[2] = test system: Arabidopsis
Procedure: In order to assess the toxicity of Na^+ ions and K^+ ions on plant growth, plants were grown on an MS medium supplemented with one of 25, 50, 75 and 100 mM of either NaCl or KCl. The standard MS medium lacked KNO3.

[3] = test system: Nicotiana tabacum; test: Calli regeneration under hygromycin selection after Agrobacterium transformation of leaves; assay type: in vivo; conditions: for Calli regenerated and transplanted: died on soil / Calli regenerated and transplanted: total: 20 leaves transformed
Procedure: Seeds of tobacco cultivar “Big Havana” were surface-sterilized with a solution containing 1% bleach and 0.05% Tween-80, for about 3 minutes and then rinsed twice with sterile distilled water for about 5 minutes. Surface-sterilized seeds were plated in 100 mm Petri dishes on sterile Whatman® filter paper submersed in 4 ml of liquid MS medium containing varying amounts of KCl and the plants were transferred to a growth chamber for germination. Once germinated, the plants were removed from the growth chamber and grown for a period of one week under conditions of 16-hours light, 22° C. and 8-hours dark, 18° C. Three to five one-week-old plants were then removed from the 4-ml liquid medium and were transferred to single sterile glass 250-ml flasks containing 15 ml of sterile liquid MS media supplemented with varying amounts of KCl. Flasks were then installed on shakers at 50-75 rpm. Plants were continuously grown under conditions of 16-hours light, 22° C. and 8-hours dark, 18° C. The growth medium in each flask was replaced weekly with 25 ml of fresh medium. Following a 3-week period, plants were removed from the flasks and 2 to 3 pairs of fully developed fresh leaves about 2-4 cm long were harvested (cut from the plant) for transformation with Agrobacteria.
Experimental groups of tobacco plants were germinated and grown in a liquid medium culture supplemented with varying amounts of KCl. Control plants for the transformation experiments were grown in a standard MS-medium that was not supplemented with KCl.
Four weeks post-germination, the tobacco plants were removed from the liquid medium culture. The leaves from the plants were removed, and several parallel incisions were made along the leaves. The leaves were then vacuum infiltrated with an Agrobacterium suspension culture carrying the plasmid with LUC (gene coding for luciferase) and hygromycin (gene coding for the resistance to hygromycin) genes.
The leaves were vacuum-infiltrated twice for about 5 minutes with the Agrobacterium suspension culture using standard procedures known in the art. Following vacuum-infiltration, the tobacco leaves were dried for about 5 to 10 minutes on sterile Whatman® filter paper to remove substantially all excess Agrobacterium cells. The leaves were then placed on plates containing MS medium, and each of the plates were placed for in a room for a period of 3 day at a temperature of 22° C. and exposed to a daily regime of 16-hours of light and 8-hours of dark.
Leaves from each of the experimental groups grown on the different media compositions having varying amounts of KCL and the controls were washed with sterile water to remove the Agrobacterium suspension. To remove traces of growth medium, leaves were blotted on sterile filter paper and then submersed in a Petri dish laid out with Whatman® filter paper containing re-suspended Agrobacterium cells. Each submersed leaf surface was incised using a sharp surgical blade in parallel along the side veins. The distance between the two parallel incisions was about 5-7 mm. The primary leaf vein and leaf margins were left intact. Once cutting was complete, leaves remained submersed for a period of about 10 minutes. Leaves were then removed from the Petri dish and were blotted dry and placed upside-down on plates of MS medium, and were incubated in a dark room at 22° C. for a period of 3 days. […]
After a period of about 3 to 4 weeks, the numbers of regenerated calli were determined. […]

[4] = test system: Arabidopsis thaliana; test: Homologous recombination (GUS reporter, histochemical staining) in plants grown on supplemented medium; assay type: in vivo; conditions: for increase in homologous recombination vs control MS medium: about 3 weeks; for effect on homologous recombination frequency: FIG. 3; for RR (recombination rate): 3-week-old plants
Description: Homologous recombination was detected in plants, in particular Arabidopsis thaliana and tobacco plants, that were transformed with scorable reporter markers, for example, beta-glucuronidase (uidA or GUS). Upon homologous recombination, the marker gene is restored. Homologous recombination events were identified using histochemical staining. […] A recombination substrate generally consists of two non-functional overlapping copies of a GUS gene. Damage to one of the regions of homology may be repaired using the second copy as a template. A simple count of the number of recombination events in a population of plants was used to conduct quantitative analyses of beta-glucuronidase (GUS) activity. The homologous recombination frequency (HRF) was determined by relating the number of blue spots counted which are indicative of […] and then relating that number to the total number of plants scored. The recombination rate (RR) was determined by relating the HRF to the total number of haploid genomes present in the plant.
The total DNA of the transgenic lines was isolated from whole plants at preferably the full rosette stage using a Nucleon™ PhytoPure™ plant DNA extraction kit from Amersham Life Science. DNA may also be isolated from plants at a different development stage. The yield of total DNA measured in one of micrograms per plant or micrograms per plant organ was compared with the known mean DNA content, 0.16 pg of an A. thaliana cell, to give an approximate number of genomes present in plants (Swoboda et al., Mol. Gen. Genet., 1993, 237(1-2): 33-40). The total DNA was isolated from one of all leaves, roots, and stems of 4 plants per each experimental group for each transgenic line. The average DNA content from these samples was used to estimate the number of genomes present.
Tissues were prepared from A. thaliana plants that were germinated and grown for a period of 3 weeks on a medium containing 0, 25, 75, and 100 mM of NaCl. The recombination rate (RR) was calculated by scoring the HRF in separate groups of 3-week-old plants and then relating these numbers to the total number of genomes present in the plants. Each of the calculated values represents the mean value for the RR. […] The “Fold Increase” values shown in Table 1 were calculated by relating the data from plants grown on 25, 75 and 100 mM of NaCL to the data from plants grown in the absence of NaCl.
Plants were germinated and grown on MS medium supplemented with one of 25 mM NaCl, 12.5 mM of Na2SO4, 12.5 mM of MgCl2, and 12.5 mM of MgSO4. Control plants were grown on standard MS medium. […] The data shown is the RR as an average of two independent experiments, each having 200 plants per experimental group.
The effects of KCl on plant transformation were measured using transgenic plants germinated from Arabidopsis line #11 obtained from Prof. Hohn, Friedrich Miescher Institute, Basel, Switzerland. Plants were germinated and grown on a solid or modified MS basal medium in presence of varying quantities of KCl. In order to establish KCl as the single source of potassium in all the modified media, KNO3, normally present in MS media was omitted. Additionally, potassium dihydrogenphosphate (KH2PO4) was replaced with ammonium dihydrogenphosphate (NH4▪H2PO4).

SMILES: [Cl-].[K+] [KCl, potassium chloride]
- Integration frequency, LUC positive plants/leaf transformed ([1]; 47 mM KCl): 5.3
- difference in number of stable transformants vs control media ([1]; 47 mM KCl): 5.9 fold
- Calli regenerated and transplanted, LUC expression test: LUC negative ([1]; 47 mM KCl): 32
- Calli regenerated and transplanted, LUC expression test: LUC positive ([1]; 47 mM KCl): 106
- Integration frequency, LUC positive plants/leaf transformed ([1]; 94 mM KCl): 7.2
- difference in number of stable transformants vs control media ([1]; 94 mM KCl): 8.0 fold
- Calli regenerated and transplanted, LUC expression test: LUC negative ([1]; 94 mM KCl): 41
- Calli regenerated and transplanted, LUC expression test: LUC positive ([1]; 94 mM KCl): 144
- effect on plant phenotype / plant biomass ([2]; 100 mM KCl in MS medium): no decrease in plant biomass was observed
- Calli regenerated and transplanted: died on soil ([3]; 47 mM KCl): 0
- Calli regenerated and transplanted: total ([3]; 47 mM KCl): 138
- Calli regenerated and transplanted: died on soil ([3]; 94 mM KCl): 3
- Calli regenerated and transplanted: total ([3]; 94 mM KCl): 181
- increase in number of calli regenerated vs control medium ([3]; media containing 47 and 94 mM KCl): 5.9 fold
- increase in homologous recombination vs control MS medium ([4]; modified medium with 18.8 mM KCl): 9.3 fold
- increase in homologous recombination vs control MS medium ([4]; modified medium with 47 mM KCl): 15.4 fold
- increase in homologous recombination vs control MS medium ([4]; modified medium with 94 mM KCl): 19.2 fold

SMILES: [Cl-].[Cl-].[Mg+2] [MgCl2]
- effect on homologous recombination frequency ([4]; MS medium + 12.5 mM MgCl2, 21 days post-germination): significantly positive effects

SMILES: [Cl-].[Na+] [NaCl]
- decrease in plant biomass ([2]; 75 mM NaCl in MS medium): ~20%
- decrease in plant biomass ([2]; 100 mM NaCl in MS medium): ~50%
- RR (recombination rate) ([4]; 25 mM NaCl in medium): 12.29 ± 0.18 10^−8
- Fold Increase of RR ([4]; 25 mM NaCl vs plants grown in absence of NaCl): 1.64
- RR (recombination rate) ([4]; 75 mM NaCl in medium): 22.52 ± 0.34 10^−8
- Fold Increase of RR ([4]; 75 mM NaCl vs plants grown in absence of NaCl): 3
- RR (recombination rate) ([4]; 100 mM NaCl in medium): 29.57 ± 0.82 10^−8
- Fold Increase of RR ([4]; 100 mM NaCl vs plants grown in absence of NaCl): 3.93
- effect on homologous recombination frequency ([4]; MS medium + 25 mM NaCl, 21 days post-germination): significantly positive effects
- increase in recombination frequency ([4]; exposure to 25-100 mM NaCl): 2-4 fold
